Experimental data from article PMC4917279 (Journal of Medicinal Chemistry, 2016).

How the values were obtained:
[1] = biological target: RPS6KA5(Kin.Dom.2-C-terminal) (Homo sapiens, UniProt O75582); experiment: KINOMEscan; format: binding; conditions: read-out: %Ctrl @ 1000 nM
PIP5K1A = biological target: T1, PIP5K1A (Homo sapiens, UniProt Q99755); experiment: KINOMEscan; format: binding; conditions: read-out: %Ctrl @ 1000 nM
T1 construct: purchased DiscoveRx KINOMEscan

BRSK1 = biological target: T2, BRSK1 (Homo sapiens, UniProt Q8TDC3); experiment: KINOMEscan; format: binding; conditions: read-out: %Ctrl @ 1000 nM
T2 construct: purchased DiscoveRx KINOMEscan
T2 sequence (Q8TDC3 whole entry): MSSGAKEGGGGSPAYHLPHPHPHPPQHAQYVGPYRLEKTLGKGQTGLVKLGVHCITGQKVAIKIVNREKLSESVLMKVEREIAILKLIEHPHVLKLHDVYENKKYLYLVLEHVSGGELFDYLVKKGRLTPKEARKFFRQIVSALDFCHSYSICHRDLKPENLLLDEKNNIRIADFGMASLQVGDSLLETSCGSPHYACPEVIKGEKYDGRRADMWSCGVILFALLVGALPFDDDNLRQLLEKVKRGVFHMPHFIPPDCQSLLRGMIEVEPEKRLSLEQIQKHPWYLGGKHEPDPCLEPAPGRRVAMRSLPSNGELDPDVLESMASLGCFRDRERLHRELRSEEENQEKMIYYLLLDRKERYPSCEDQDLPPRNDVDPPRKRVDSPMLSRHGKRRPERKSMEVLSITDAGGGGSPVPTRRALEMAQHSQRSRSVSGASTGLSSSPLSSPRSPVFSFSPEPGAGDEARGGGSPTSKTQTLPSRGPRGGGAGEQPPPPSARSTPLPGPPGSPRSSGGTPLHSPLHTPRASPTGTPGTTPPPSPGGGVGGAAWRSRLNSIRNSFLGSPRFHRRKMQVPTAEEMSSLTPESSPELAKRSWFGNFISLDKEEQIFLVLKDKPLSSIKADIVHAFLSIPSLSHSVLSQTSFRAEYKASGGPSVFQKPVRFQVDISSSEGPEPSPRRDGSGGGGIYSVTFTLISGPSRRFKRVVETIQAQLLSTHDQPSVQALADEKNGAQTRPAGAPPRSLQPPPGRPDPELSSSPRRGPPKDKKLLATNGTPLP

IKK-alpha = biological target: T3, IKK-alpha (Homo sapiens, UniProt O15111); experiment: KINOMEscan; format: binding; conditions: read-out: %Ctrl @ 1000 nM
T3 construct: purchased DiscoveRx KINOMEscan

PIM2 = biological target: T4, PIM2 (Homo sapiens, UniProt Q9P1W9); experiment: KINOMEscan; format: binding; conditions: read-out: %Ctrl @ 1000 nM
T4 construct: purchased DiscoveRx KINOMEscan

MAP3K2 = biological target: T5, MAP3K2 (Homo sapiens, UniProt Q9Y2U5); experiment: KINOMEscan; format: binding; conditions: read-out: %Ctrl @ 1000 nM
T5 construct: purchased DiscoveRx KINOMEscan
T5 sequence (Q9Y2U5 whole entry): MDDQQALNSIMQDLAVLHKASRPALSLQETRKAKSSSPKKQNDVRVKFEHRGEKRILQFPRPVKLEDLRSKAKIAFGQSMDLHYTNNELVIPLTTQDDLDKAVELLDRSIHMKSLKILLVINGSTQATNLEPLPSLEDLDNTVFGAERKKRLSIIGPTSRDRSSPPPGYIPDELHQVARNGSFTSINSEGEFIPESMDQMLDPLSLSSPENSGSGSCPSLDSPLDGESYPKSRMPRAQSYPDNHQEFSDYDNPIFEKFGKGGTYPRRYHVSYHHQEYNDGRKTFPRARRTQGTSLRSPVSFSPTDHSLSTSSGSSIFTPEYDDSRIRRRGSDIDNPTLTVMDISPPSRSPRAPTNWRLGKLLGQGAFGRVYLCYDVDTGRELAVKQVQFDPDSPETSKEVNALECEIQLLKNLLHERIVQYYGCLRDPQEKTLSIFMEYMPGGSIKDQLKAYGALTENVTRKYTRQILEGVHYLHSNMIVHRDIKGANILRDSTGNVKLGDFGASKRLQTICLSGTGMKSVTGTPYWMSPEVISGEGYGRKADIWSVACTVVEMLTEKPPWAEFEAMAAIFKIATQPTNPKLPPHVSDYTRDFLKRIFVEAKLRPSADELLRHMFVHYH

PKN1 = biological target: T6, PKN1 (Homo sapiens, UniProt Q16512); experiment: KINOMEscan; format: binding; conditions: read-out: %Ctrl @ 1000 nM
T6 construct: purchased DiscoveRx KINOMEscan

IRAK1 = biological target: T7, IRAK1 (Homo sapiens, UniProt P51617); experiment: KINOMEscan; format: binding; conditions: read-out: %Ctrl @ 1000 nM
T7 construct: purchased DiscoveRx KINOMEscan

NIK = biological target: T8, NIK (Homo sapiens, UniProt Q99558); experiment: KINOMEscan; format: binding; conditions: read-out: %Ctrl @ 1000 nM
T8 construct: purchased DiscoveRx KINOMEscan

TRKC = biological target: T9, TRKC (Homo sapiens, UniProt Q16288); experiment: KINOMEscan; format: binding; conditions: read-out: %Ctrl @ 1000 nM
T9 construct: purchased DiscoveRx KINOMEscan

GCN2(Kin.Dom.2,S808G) = biological target: T10, GCN2(Kin.Dom.2,S808G) (Homo sapiens, UniProt Q9P2K8, S808G); experiment: KINOMEscan; format: binding; conditions: read-out: %Ctrl @ 1000 nM
T10 construct: GCN2(Kin.Dom.2,S808G); purchased DiscoveRx KINOMEscan
T10 sequence (Q9P2K8 590-1001 S808G limits assumed): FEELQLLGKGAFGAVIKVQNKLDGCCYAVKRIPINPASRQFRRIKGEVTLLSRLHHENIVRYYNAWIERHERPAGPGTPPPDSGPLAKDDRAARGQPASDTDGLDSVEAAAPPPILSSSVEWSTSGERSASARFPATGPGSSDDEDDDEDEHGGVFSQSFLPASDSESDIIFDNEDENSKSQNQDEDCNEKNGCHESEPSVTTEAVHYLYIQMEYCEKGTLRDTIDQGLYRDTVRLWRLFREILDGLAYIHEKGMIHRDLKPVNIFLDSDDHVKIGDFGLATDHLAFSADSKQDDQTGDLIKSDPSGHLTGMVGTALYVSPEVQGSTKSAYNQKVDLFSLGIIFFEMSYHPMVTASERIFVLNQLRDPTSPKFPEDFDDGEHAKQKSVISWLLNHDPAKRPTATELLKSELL

DAPK2 = biological target: T11, DAPK2 (Homo sapiens, UniProt Q9UIK4); experiment: KINOMEscan; format: binding; conditions: read-out: %Ctrl @ 1000 nM
T11 construct: purchased DiscoveRx KINOMEscan
T11 sequence (Q9UIK4 whole entry): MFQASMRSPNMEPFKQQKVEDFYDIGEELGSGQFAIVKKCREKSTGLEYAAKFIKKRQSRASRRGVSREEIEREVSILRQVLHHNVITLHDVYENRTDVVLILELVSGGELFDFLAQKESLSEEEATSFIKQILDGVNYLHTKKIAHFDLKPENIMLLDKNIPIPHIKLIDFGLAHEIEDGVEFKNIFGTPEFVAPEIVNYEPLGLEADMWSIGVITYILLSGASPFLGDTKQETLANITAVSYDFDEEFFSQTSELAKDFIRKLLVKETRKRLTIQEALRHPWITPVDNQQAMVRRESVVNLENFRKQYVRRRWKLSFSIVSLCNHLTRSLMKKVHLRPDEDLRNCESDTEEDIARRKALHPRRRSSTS

PDGFRB = biological target: T12, PDGFRB (Homo sapiens, UniProt P09619); experiment: KINOMEscan; format: binding; conditions: read-out: %Ctrl @ 1000 nM
T12 construct: purchased DiscoveRx KINOMEscan

MEK1 = biological target: T13, MEK1 (Homo sapiens, UniProt Q02750); experiment: KINOMEscan; format: binding; conditions: read-out: %Ctrl @ 1000 nM
T13 construct: purchased DiscoveRx KINOMEscan

PAK7 = biological target: T14, PAK7 (Homo sapiens, UniProt Q9P286); experiment: KINOMEscan; format: binding; conditions: read-out: %Ctrl @ 1000 nM
T14 construct: purchased DiscoveRx KINOMEscan
T14 sequence (Q9P286 whole entry): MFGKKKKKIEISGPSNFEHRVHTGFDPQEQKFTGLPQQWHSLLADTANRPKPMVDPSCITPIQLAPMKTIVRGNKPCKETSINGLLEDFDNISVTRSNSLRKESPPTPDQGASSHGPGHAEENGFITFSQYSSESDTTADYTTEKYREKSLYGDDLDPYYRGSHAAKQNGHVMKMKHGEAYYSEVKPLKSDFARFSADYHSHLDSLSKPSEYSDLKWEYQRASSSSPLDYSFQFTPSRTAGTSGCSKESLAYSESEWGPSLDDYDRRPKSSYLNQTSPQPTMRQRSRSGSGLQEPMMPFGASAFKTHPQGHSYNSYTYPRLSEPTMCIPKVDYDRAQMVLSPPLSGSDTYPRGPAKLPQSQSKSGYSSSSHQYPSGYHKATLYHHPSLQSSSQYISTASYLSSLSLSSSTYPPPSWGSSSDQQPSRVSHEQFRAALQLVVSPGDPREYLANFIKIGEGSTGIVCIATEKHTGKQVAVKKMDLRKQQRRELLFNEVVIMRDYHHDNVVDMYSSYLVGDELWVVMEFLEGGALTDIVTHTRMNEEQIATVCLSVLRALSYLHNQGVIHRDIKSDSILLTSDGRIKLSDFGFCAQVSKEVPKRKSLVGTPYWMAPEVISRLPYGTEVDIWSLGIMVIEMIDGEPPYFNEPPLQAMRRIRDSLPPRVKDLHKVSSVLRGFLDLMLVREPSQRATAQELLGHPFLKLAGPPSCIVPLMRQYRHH

[2] = Exposure and tolerability after oral administration to mice; format: in vivo; conditions: 10–100 mg/kg po qd
PIK3CA(M1043I) = biological target: T15, PIK3CA(M1043I) (Homo sapiens, UniProt P42336, M1043I); experiment: KINOMEscan; format: binding; conditions: read-out: %Ctrl @ 1000 nM
T15 construct: purchased DiscoveRx KINOMEscan

SNARK = biological target: T16, SNARK (Homo sapiens, UniProt Q9H093); experiment: KINOMEscan; format: binding; conditions: read-out: %Ctrl @ 1000 nM
T16 construct: purchased DiscoveRx KINOMEscan

AURKC = biological target: T17, AURKC (Homo sapiens, UniProt Q9UQB9); experiment: KINOMEscan; format: binding; conditions: read-out: %Ctrl @ 1000 nM
T17 construct: purchased DiscoveRx KINOMEscan

ADCK4 = biological target: T18, ADCK4 (Homo sapiens, UniProt Q96D53); experiment: KINOMEscan; format: binding; conditions: read-out: %Ctrl @ 1000 nM
T18 construct: purchased DiscoveRx KINOMEscan

QSK = biological target: T19, QSK (Homo sapiens, UniProt Q9Y2K2); experiment: KINOMEscan; format: binding; conditions: read-out: %Ctrl @ 1000 nM
T19 construct: purchased DiscoveRx KINOMEscan

YANK2 = biological target: T20, YANK2 (Homo sapiens, UniProt Q9NY57); experiment: KINOMEscan; format: binding; conditions: read-out: %Ctrl @ 1000 nM
T20 construct: purchased DiscoveRx KINOMEscan
T20 sequence (Q9NY57 whole entry): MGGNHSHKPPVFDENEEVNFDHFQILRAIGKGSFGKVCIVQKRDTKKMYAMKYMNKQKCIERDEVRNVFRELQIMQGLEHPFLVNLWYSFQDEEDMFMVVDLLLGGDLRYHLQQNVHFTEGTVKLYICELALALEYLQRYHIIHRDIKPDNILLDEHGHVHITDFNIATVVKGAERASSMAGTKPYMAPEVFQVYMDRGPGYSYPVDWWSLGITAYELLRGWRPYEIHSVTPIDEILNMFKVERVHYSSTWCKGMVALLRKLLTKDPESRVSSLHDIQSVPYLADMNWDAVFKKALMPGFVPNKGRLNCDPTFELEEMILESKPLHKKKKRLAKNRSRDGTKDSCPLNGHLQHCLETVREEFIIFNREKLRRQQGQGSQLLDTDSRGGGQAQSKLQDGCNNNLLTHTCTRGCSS

TNIK = biological target: T21, TNIK (Homo sapiens, UniProt Q9UKE5); experiment: KINOMEscan; format: binding; conditions: read-out: %Ctrl @ 1000 nM
T21 construct: purchased DiscoveRx KINOMEscan

BMPR1A = biological target: T22, BMPR1A (Homo sapiens, UniProt P36894); experiment: KINOMEscan; format: binding; conditions: read-out: %Ctrl @ 1000 nM
T22 construct: purchased DiscoveRx KINOMEscan

[3] = Metabolic stability in rat hepatocytes; format: in vitro ADME; conditions: read-out: CL (CLblood) (converted)
Protocol: Liver cells were distributed in Williams’ medium E containing 5% fetal calf serum (FCS) to glass vials at a density of 1.0 × 10^6 vital cells/mL. The test compound was added to a final concentration of 1 μM. During incubation, the hepatocyte suspensions were continuously shaken and aliquots were taken at 2, 8, 16, 30, 45, and 90 min, to which an equal volume of cold MeOH was immediately added. Samples were frozen at −20 °C overnight, then centrifuged (15 min, 3000 rpm), and the supernatant was analyzed with an Agilent 1200 HPLC system with LC-MS/MS detection. The half-life of a test compound was determined from the concentration–time plot. The intrinsic clearances were calculated from the half-life, together with additional parameters (liver blood flow, quantity of liver cells in vivo and in vitro).

DRAK2 = biological target: T23, DRAK2 (Homo sapiens, UniProt O94768); experiment: KINOMEscan; format: binding; conditions: read-out: %Ctrl @ 1000 nM
T23 construct: purchased DiscoveRx KINOMEscan

NEK5 = biological target: T24, NEK5 (Homo sapiens, UniProt Q6P3R8); experiment: KINOMEscan; format: binding; conditions: read-out: %Ctrl @ 1000 nM
T24 construct: purchased DiscoveRx KINOMEscan

RET(M918T) = biological target: T25, RET(M918T) (Homo sapiens, UniProt P07949, M918T); experiment: KINOMEscan; format: binding; conditions: read-out: %Ctrl @ 1000 nM
T25 construct: purchased DiscoveRx KINOMEscan
T25 sequence (P07949 29-1114 M918T): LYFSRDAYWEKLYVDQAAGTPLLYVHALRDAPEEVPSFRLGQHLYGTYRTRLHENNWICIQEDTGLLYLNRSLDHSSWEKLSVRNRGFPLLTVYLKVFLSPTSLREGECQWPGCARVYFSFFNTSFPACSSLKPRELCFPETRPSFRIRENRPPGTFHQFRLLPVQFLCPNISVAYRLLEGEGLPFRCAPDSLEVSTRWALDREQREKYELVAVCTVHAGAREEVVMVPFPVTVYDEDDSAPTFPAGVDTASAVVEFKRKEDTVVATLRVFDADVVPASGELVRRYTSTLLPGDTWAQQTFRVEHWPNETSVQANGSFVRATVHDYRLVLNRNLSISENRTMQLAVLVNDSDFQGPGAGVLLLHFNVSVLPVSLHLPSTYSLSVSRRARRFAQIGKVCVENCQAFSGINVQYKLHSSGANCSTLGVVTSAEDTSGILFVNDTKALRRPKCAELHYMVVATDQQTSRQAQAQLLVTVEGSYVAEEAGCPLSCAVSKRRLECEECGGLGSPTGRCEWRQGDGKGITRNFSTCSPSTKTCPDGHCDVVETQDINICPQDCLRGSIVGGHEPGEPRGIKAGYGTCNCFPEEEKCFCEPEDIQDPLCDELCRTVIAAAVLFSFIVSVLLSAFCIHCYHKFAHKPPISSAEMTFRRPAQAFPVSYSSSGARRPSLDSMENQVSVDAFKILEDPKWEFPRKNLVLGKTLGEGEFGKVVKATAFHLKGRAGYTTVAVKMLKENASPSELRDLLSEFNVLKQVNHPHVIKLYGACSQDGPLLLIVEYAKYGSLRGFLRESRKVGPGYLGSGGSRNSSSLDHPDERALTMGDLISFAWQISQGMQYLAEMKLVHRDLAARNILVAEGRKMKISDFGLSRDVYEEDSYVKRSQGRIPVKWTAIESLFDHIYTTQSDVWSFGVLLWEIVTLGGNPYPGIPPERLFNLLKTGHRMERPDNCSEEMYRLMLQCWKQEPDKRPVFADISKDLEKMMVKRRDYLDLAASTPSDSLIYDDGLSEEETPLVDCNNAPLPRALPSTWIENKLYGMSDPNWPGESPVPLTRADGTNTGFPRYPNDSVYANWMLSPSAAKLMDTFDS

HIPK4 = biological target: T26, HIPK4 (Homo sapiens, UniProt Q8NE63); experiment: KINOMEscan; format: binding; conditions: read-out: %Ctrl @ 1000 nM
T26 construct: purchased DiscoveRx KINOMEscan

NLK = biological target: T27, NLK (Homo sapiens, UniProt Q9UBE8); experiment: KINOMEscan; format: binding; conditions: read-out: %Ctrl @ 1000 nM
T27 construct: purchased DiscoveRx KINOMEscan

HIPK1 = biological target: T28, HIPK1 (Homo sapiens, UniProt Q86Z02); experiment: KINOMEscan; format: binding; conditions: read-out: %Ctrl @ 1000 nM
T28 construct: purchased DiscoveRx KINOMEscan

EPHB2 = biological target: T29, EPHB2 (Homo sapiens, UniProt P29323); experiment: KINOMEscan; format: binding; conditions: read-out: %Ctrl @ 1000 nM
T29 construct: purchased DiscoveRx KINOMEscan

TGFBR2 = biological target: T30, TGFBR2 (Homo sapiens, UniProt P37173); experiment: KINOMEscan; format: binding; conditions: read-out: %Ctrl @ 1000 nM
T30 construct: purchased DiscoveRx KINOMEscan

GRK4 = biological target: T31, GRK4 (Homo sapiens, UniProt P32298); experiment: KINOMEscan; format: binding; conditions: read-out: %Ctrl @ 1000 nM
T31 construct: purchased DiscoveRx KINOMEscan

CTK = biological target: T32, CTK (Homo sapiens, UniProt P42679); experiment: KINOMEscan; format: binding; conditions: read-out: %Ctrl @ 1000 nM
T32 construct: purchased DiscoveRx KINOMEscan
T32 sequence (P42679 whole entry): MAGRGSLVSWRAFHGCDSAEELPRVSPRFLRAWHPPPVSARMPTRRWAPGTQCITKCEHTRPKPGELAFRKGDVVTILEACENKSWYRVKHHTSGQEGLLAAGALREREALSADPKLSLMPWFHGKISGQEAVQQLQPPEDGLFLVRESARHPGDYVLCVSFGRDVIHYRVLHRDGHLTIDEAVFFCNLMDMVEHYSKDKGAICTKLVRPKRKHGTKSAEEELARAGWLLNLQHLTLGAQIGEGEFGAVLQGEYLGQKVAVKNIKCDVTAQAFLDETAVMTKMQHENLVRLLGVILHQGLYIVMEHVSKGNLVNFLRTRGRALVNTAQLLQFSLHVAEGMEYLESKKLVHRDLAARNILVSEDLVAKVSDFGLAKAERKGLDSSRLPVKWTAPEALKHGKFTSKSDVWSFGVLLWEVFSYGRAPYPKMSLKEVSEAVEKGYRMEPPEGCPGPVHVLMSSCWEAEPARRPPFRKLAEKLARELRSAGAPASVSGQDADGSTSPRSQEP

EPHB4 = biological target: T33, EPHB4 (Homo sapiens, UniProt P54760); experiment: KINOMEscan; format: binding; conditions: read-out: %Ctrl @ 1000 nM
T33 construct: purchased DiscoveRx KINOMEscan

CAMKK2 = biological target: T34, CAMKK2 (Homo sapiens, UniProt Q96RR4); experiment: KINOMEscan; format: binding; conditions: read-out: %Ctrl @ 1000 nM
T34 construct: purchased DiscoveRx KINOMEscan

CDK9 = biological target: T35, CDK9 (Homo sapiens, UniProt P50750); experiment: KINOMEscan; format: binding; conditions: read-out: %Ctrl @ 1000 nM
T35 construct: purchased DiscoveRx KINOMEscan

MEK5 = biological target: T36, MEK5 (Homo sapiens, UniProt Q13163); experiment: KINOMEscan; format: binding; conditions: read-out: %Ctrl @ 1000 nM
T36 construct: purchased DiscoveRx KINOMEscan

CCN(C(=O)CO)[C@H]1CN(/C(=N\C#N)Nc2cccc(OC(F)F)c2)N=C1c1ccc(Cl)c(Cl)c1 [(S)-4] showed a remaining binding at 1 µM [1] of 99%, a remaining binding at 1 µM (PIP5K1A) of 70% and a remaining binding at 1 µM (BRSK1) of 100%. It also gave a remaining binding at 1 µM (IKK-alpha) of 92%, a remaining binding at 1 µM (PIM2) of 90% and a remaining binding at 1 µM (MAP3K2) of 100%. It also gave a remaining binding at 1 µM (PKN1) of 61%, a remaining binding at 1 µM (IRAK1) of 92% and a remaining binding at 1 µM (NIK) of 100%. For the same compound, the remaining binding at 1 µM (TRKC) was 55%, the remaining binding at 1 µM (GCN2(Kin.Dom.2,S808G)) was 100% and the remaining binding at 1 µM (DAPK2) was 100%. For the same compound, the remaining binding at 1 µM (PDGFRB) was 100%, the remaining binding at 1 µM (MEK1) was 98% and the remaining binding at 1 µM (PAK7) was 100%. The Tolerability [2] was “well tolerated”, the remaining binding at 1 µM (PIK3CA(M1043I)) was 68% and the remaining binding at 1 µM (SNARK) was 100%. The remaining binding at 1 µM (AURKC) was 77%, the remaining binding at 1 µM (ADCK4) was 81% and the remaining binding at 1 µM (QSK) was 94%. The remaining binding at 1 µM (YANK2) was 98%, the remaining binding at 1 µM (TNIK) was 100% and the remaining binding at 1 µM (BMPR1A) was 100%. The CLhep predicted at […], 1 µM [3] was 41.7 mL/min/kg, the remaining binding at 1 µM (DRAK2) was 100% and the remaining binding at 1 µM (NEK5) was 85%. It also gave a remaining binding at 1 µM (RET(M918T)) of 80%, a remaining binding at 1 µM (HIPK4) of 100% and a remaining binding at 1 µM (NLK) of 100%. The remaining binding at 1 µM (HIPK1) was 51%, the remaining binding at 1 µM (EPHB2) was 74% and the remaining binding at 1 µM (TGFBR2) was 59%. It also gave a remaining binding at 1 µM (GRK4) of 98%, a remaining binding at 1 µM (CTK) of 100% and a remaining binding at 1 µM (EPHB4) of 97%. The remaining binding at 1 µM (CAMKK2) was 84%, the remaining binding at 1 µM (CDK9) was 74% and the remaining binding at 1 µM (MEK5) was 100%.
